The numbers were not newly measured in US11547692B2, “Complete animal food having cannabinoids in trace concentrations to avoid toxicity” (High Plains Nutrition, LLC, priority 2017, dated 2023), which cites them from elsewhere.

The test system of this data set is psychotropic effects. To be noted: humans; single administration; lowest dose tested; European Food Safety Authority (EFSA, 2011).

Consider `CCCCCc1cc(O)c2c(c1)OC(C)(C)[C@@H]1CCC(C)=C[C@@H]21` [THC, Tetrahydrocannabinol], for which the “Lowest Observed Effect Level (LOEL), lowest effective dose for psychotropic effects” value is 0.04 mg THC/kg BW.
